{"source": "patent US20260297164A1", "about": "“ANTI-FIBROTIC PEPTIDES AND USES THEREOF” (Deackt, Inc., priority 2021, published 2026)", "test_system": "TGF-β1-induced PI3K/Akt/mTOR, p62, IKK signaling in mouse lung fibroblasts", "assay": "Western immunoblot of signaling proteins in TGF-β1-stimulated mouse lung fibroblasts (SDC2-pep)", "assay_type": "cell-based", "settings": "wild type fibroblasts, TGF-β1 10 ng/ml, 24 h", "procedure": "FIG. 5. […] (A-C) Ptprj^fl/fl Col1a2^Cre-ER(T)+/0 mice (fibroblast-specific CD148 deficient) and Col1a2^Cre-ER(T)+/0 (WT) mice were exposed to BLM. SDC2 18-aa peptide (SDC2-pep, 0.5 mg/kg) was intranasally delivered into WT and Ptprj^fl/fl Col1a2^Cre-ER(T)+/0 mice 10 days after BLM injury. Treatments were repeated at day 12, 14, 16 and 18. (A) At 24 days after BLM exposure lungs were harvested and stained with Masson's trichrome (n=3 for saline and n=5 for BLM groups). (B) Hydroxyproline content was measured in the left lung of mice exposed to BLM (n=11) or saline (n=5). Gene expression of (C) Fn and Col1a1; and (D) connective tissue growth factor (Ctgf) in harvested lungs were measured using qPCR (n=5 for each condition). […] (E) Expression of p-AKT/Akt, p-mTOR/mTOR, p62/GAPDH p-IKKα/β/IKKα, α-SMA/GAPDH, and CD148/GAPDH was determined by Western immunoblotting (n=4), and corresponding densitometry (ImageJ software). […] (F) mRNA levels of Col1a1 and Fn were measured by qPCR (n=5 for each condition). […] Gel contractility was measured at 0, 12, and 24 h after TGF-β1 stimulation (n=6 for each condition). […] Total cell concentrations were measured in BAL fluid from Ptprj^fl/fl Col1a2^Cre-ER(T)+/0 mice and Col1a2-Cre (control) mice 21 days after BLM injury (n=5/group). […]", "data": [{"substance": "TGF-β1", "values": [{"measurement": "expression of p-Akt, p-mTOR, p62, p-IKKα/β, and α-SMA", "result": "increased"}]}]}
